From ChEMBL document CHEMBL1201862, “PubChem BioAssay data set” (2004)
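Assay format: 96-well plates, 48-hour exposure. GI50 = concentration required for 50% inhibition of growth.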 Activity calls are given as the source filed them. Rule as the data show it: active = GI50 up to about 1.1 µM and inactive = higher.

Key:
Test in all cases: growth of human tumour cells (NCI), 48 h
[1] = tested on: 786-0
[2] = tested on: A498
[3] = tested on: A549
[4] = tested on: ACHN
[5] = tested on: CAKI-1
[6] = tested on: CCRF-CEM
[7] = tested on: COLO 205
[8] = tested on: DU-145
[9] = tested on: EKVX
[10] = tested on: HCC 2998
[11] = tested on: HCT-116
[12] = tested on: HCT-15
[13] = tested on: HL-60
[14] = tested on: HOP-62
[15] = tested on: HOP-92
[16] = tested on: HT-29
[17] = tested on: Hs-578T
[18] = tested on: IGROV-1
[19] = tested on: K562
[20] = tested on: KM12
[21] = tested on: LOX IMVI
[22] = tested on: M14
[23] = tested on: MCF7
[24] = tested on: MDA-MB-231
[25] = tested on: MDA-MB-435
[26] = tested on: MDA-N
[27] = tested on: MOLT-4
[28] = tested on: Malme-3M
[29] = tested on: NCI-H226
[30] = tested on: NCI-H23
[31] = tested on: NCI-H460
[32] = tested on: NCI-H522
[33] = tested on: NCI/ADR-RES
[34] = tested on: OVCAR-3
[35] = tested on: OVCAR-4
[36] = tested on: OVCAR-5
[37] = tested on: OVCAR-8
[38] = tested on: PC-3
[39] = tested on: RXF 393
[40] = tested on: SF-268
[41] = tested on: SF-295
[42] = tested on: SF-539
[43] = tested on: SK-MEL-28
[44] = tested on: SK-MEL-2
[45] = tested on: SK-MEL-5
[46] = tested on: SK-OV-3
[47] = tested on: SN12C
[48] = tested on: SNB-19
[49] = tested on: SNB-75
[50] = tested on: SR
[51] = tested on: SW-620
[52] = tested on: T47D
[53] = tested on: TK-10
[54] = tested on: U-251
[55] = tested on: UACC-257
[56] = tested on: UACC-62

Compound: CCOC(=O)CC1c2ccc(O)cc2OC(=O)C1c1ccc([N+](=O)[O-])cc1 (stereo not drawn)
- GI50 [1]: 41.3 µM (inactive)
- GI50 [2]: 25.6 µM (inactive)
- GI50 [3]: 27.5 µM (inactive)
- GI50 [4]: 25.2 µM (inactive)
- GI50 [5]: 43 µM (inactive)
- GI50 [6]: 22.8 µM (inactive)
- GI50 [7]: 15.7 µM (inactive)
- GI50 [8]: 48.9 µM (inactive)
- GI50 [9]: 39.7 µM (inactive)
- GI50 [10]: 20.3 µM (inactive)
- GI50 [11]: 22.5 µM (inactive)
- GI50 [12]: 30.4 µM
- GI50 [13]: 34.1 µM (inactive)
- GI50 [14]: 20.2 µM (inactive)
- GI50 [15]: 20.4 µM (inactive)
- GI50 [16]: 35.2 µM (inactive)
- GI50 [17]: 46.7 µM (inactive)
- GI50 [18]: 21.5 µM (inactive)
- GI50 [19]: 30.4 µM (inactive)
- GI50 [20]: 34.3 µM (inactive)
- GI50 [21]: 40.7 µM (inactive)
- GI50 [22]: 21 µM (inactive)
- GI50 [23]: 14.8 µM (inactive)
- GI50 [24]: 18.5 µM (inactive)
- GI50 [25]: 25 µM (inactive)
- GI50 [26]: 28.6 µM (inactive)
- GI50 [27]: 22.8 µM (inactive)
- GI50 [28]: 27.4 µM (inactive)
- GI50 [29]: 14.2 µM (inactive)
- GI50 [30]: 27.7 µM (inactive)
- GI50 [31]: 31.3 µM (inactive)
- GI50 [32]: 18.6 µM (inactive)
- GI50 [33]: 27 µM (inactive)
- GI50 [34]: 28.8 µM (inactive)
- GI50 [35]: 27.7 µM (inactive)
- GI50 [36]: 58.6 µM (inactive)
- GI50 [37]: 29 µM (inactive)
- GI50 [38]: 22.5 µM (inactive)
- GI50 [39]: 16.9 µM (inactive)
- GI50 [40]: 40 µM (inactive)
- GI50 [41]: 38.4 µM (inactive)
- GI50 [42]: 31 µM (inactive)
- GI50 [43]: 38 µM (inactive)
- GI50 [44]: 17 µM (inactive)
- GI50 [45]: 15.4 µM (inactive)
- GI50 [46]: 33.3 µM (inactive)
- GI50 [47]: 21.8 µM (inactive)
- GI50 [48]: 63.5 µM (inactive)
- GI50 [49]: 23.9 µM (inactive)
- GI50 [50]: 31.8 µM (inactive)
- GI50 [51]: 65.6 µM (inactive)
- GI50 [52]: 15.8 µM (inactive)
- GI50 [53]: 30.3 µM (inactive)
- GI50 [54]: 35.8 µM (inactive)
- GI50 [55]: 28.8 µM (inactive)
- GI50 [56]: 37.2 µM (inactive)

Compound: N#Cc1c(-c2ccco2)c2c(n(C3OC(CO)C(O)C(O)C3O)c1=S)CCCC2 (stereo not drawn)
- GI50 [1]: > 100 µM (inactive)
- GI50 [2]: > 100 µM (inactive)
- GI50 [3]: > 100 µM (inactive)
- GI50 [4]: > 100 µM (inactive)
- GI50 [5]: > 100 µM (inactive)
- GI50 [6]: > 100 µM (inactive)
- GI50 [7]: > 100 µM (inactive)
- GI50 [8]: > 100 µM (inactive)
- GI50 [9]: > 100 µM (inactive)
- GI50 [10]: > 100 µM (inactive)
- GI50 [11]: > 100 µM (inactive)
- GI50 [12]: > 100 µM
- GI50 [13]: > 100 µM (inactive)
- GI50 [14]: > 100 µM (inactive)
- GI50 [15]: > 100 µM (inactive)
- GI50 [16]: > 100 µM (inactive)
- GI50 [17]: > 100 µM (inactive)
- GI50 [18]: > 100 µM (inactive)
- GI50 [20]: > 100 µM (inactive)
- GI50 [21]: > 100 µM (inactive)
- GI50 [22]: > 100 µM (inactive)
- GI50 [23]: > 100 µM (inactive)
- GI50 [24]: > 100 µM (inactive)
- GI50 [25]: > 100 µM (inactive)
- GI50 [26]: > 100 µM (inactive)
- GI50 [27]: > 100 µM (inactive)
- GI50 [28]: > 100 µM (inactive)
- GI50 [29]: > 100 µM (inactive)
- GI50 [30]: > 100 µM (inactive)
- GI50 [31]: > 100 µM (inactive)
- GI50 [32]: > 100 µM (inactive)
- GI50 [33]: > 100 µM (inactive)
- GI50 [34]: > 100 µM (inactive)
- GI50 [35]: > 100 µM (inactive)
- GI50 [36]: > 100 µM (inactive)
- GI50 [37]: > 100 µM (inactive)
- GI50 [38]: > 100 µM (inactive)
- GI50 [39]: > 100 µM (inactive)
- GI50 [40]: > 100 µM (inactive)
- GI50 [41]: > 100 µM (inactive)
- GI50 [42]: > 100 µM (inactive)
- GI50 [43]: > 100 µM (inactive)
- GI50 [44]: > 100 µM (inactive)
- GI50 [45]: 85.9 µM (inactive)
- GI50 [46]: > 100 µM (inactive)
- GI50 [47]: > 100 µM (inactive)
- GI50 [49]: 0.0239 µM (active)
- GI50 [50]: > 100 µM (inactive)
- GI50 [52]: 85.5 µM (inactive)
- GI50 [53]: > 100 µM (inactive)
- GI50 [55]: > 100 µM (inactive)
- GI50 [56]: > 100 µM (inactive)
